Measurements taken from patent publication US7419966B2, “[5-carboxamido or 5-fluoro]-[2′,3′-unsaturated or 3′-modified]-pyrimidine nucleosides” (Emory University, priority 1995, dated 2008).
Read-outs that look alike come from different tables or passages of the source.

Assays:
Type in all cases: cell-based
HSV-1F = assay: Anti-HSV-1 activity in Vero cells; conditions: Table 1
Vero cells = assay: Toxicity in Vero cells
CEM cells = assay: Toxicity in CEM cells
various cell lines = assay: Toxicity in various cell lines (PBM, CEM, Vero); conditions: for toxicity, in words: PBM, CEM and Vero cells
HIV-1 (strain LAV) = assay: Anti-HIV-1 activity in PHA-stimulated human PBM cells (reverse transcriptase readout); conditions: for antiviral activity against HIV, in words: text b71, b85
Method: The ability of nucleosides to inhibit HIV can be measured by various experimental techniques. The technique used herein, and described in detail below, measures the inhibition of viral replication in phytohemagglutinin (PHA) stimulated human peripheral blood mononuclear (PBM) cells infected with HIV-1. (strain LAV). The amount of virus produced is determined by measuring the virus-coded reverse transcriptase enzyme. The amount of enzyme produced is proportional to the amount of virus produced.
Three-day-old phytohemagglutinin-stimulated PBM cells (10^6 cells/ml) from hepatitis B and HIV-1 seronegative healthy donors were infected with HIV-1 (strain LAV) at a concentration of about 100 times the 50% tissue culture infectious dose (TICD 50) per ml and cultured in the presence and absence of various concentrations of antiviral compounds.
Approximately one hour after infection, the medium, with the compound to be tested (2 times the final concentration in medium) or without compound, was added to the flasks (5 ml; final volume 10 ml). AZT was used as a positive control.
The cells were exposed to the virus (about 2×10^5 dpm/ml, as determined by reverse transcriptase assay) and then placed in a CO2 incubator. HIV-1 (strain LAV) was obtained from the Center for Disease Control, Atlanta, Ga. The methods used for culturing the PBM cells, harvesting the virus and determining the reverse transcriptase activity were those described by McDougal et al. (J. Immun. Meth. 76, 171-183, 1985) and Spira et al. (J. Clin. Meth. 25, 97-99, 1987), except that fungizone was not included in the medium (see Schinazi, et al., Antimicrob. Agents Chemother. 32, 1784-1787 (1988); Id., 34:1061-1067 (1990)).
On day 6, the cells and supernatant were transferred to a 15 ml tube and centrifuged at about 900 g for 10 minutes. Five ml of supernatant were removed and the virus was concentrated by centrifugation at 40,000 rpm for 30 minutes (Beckman 70.1 Ti rotor). The solubilized virus pellet was processed for determination of the levels of reverse transcriptase. Results are expressed in dpm/ml of sampled supernatant. Virus from smaller volumes of supernatant (1 ml) can also be concentrated by centrifugation prior to solubilization and determination of reverse transcriptase levels.

[1] = test system: uninfected human PBM cells; assay: Toxicity in mitogen-stimulated uninfected human PBM cells (cell count, trypan blue exclusion)
Method: Mitogen stimulated uninfected human PBM cells (3.8×10^5 cells/ml) were cultured in the presence and absence of drug under similar conditions as those used for the antiviral assay described above. The cells were counted after 6 days using a hemacytometer and the trypan blue exclusion method, as described by Schinazi et al., Antimicrobial Agents and Chemotherapy, 22(3), 499 (1982). […]

HIV-2ROD2 = assay: Anti-HIV-2 activity in PBMC; conditions: Table 3; HIV-2ROD2; read-out: Anti-HIV-2 in PBMC EC50
SIVSMM = assay: Anti-SIV activity in PBMC; conditions: Table 3; SIVSMM; read-out: Anti-SIV in PBMC EC50
[2] = test system: hepatitis B virus in transfected HepG-2 (2.2.15) cells; assay: Anti-HBV activity in 2.2.15 cell cultures (HBV virion DNA and replicative intermediates); conditions: for EC50 / EC90: day 9
Method: The ability of the active compounds to inhibit the growth of virus in 2.2.15 cell cultures (HepG2 cells transformed with hepatitis virion) can be evaluated as described in detail below.
A summary and description of the assay for antiviral effects in this culture system and the analysis of HBV DNA has been described (Korba and Milman, 1991, Antiviral Res., 15:217). The antiviral evaluations were performed on two separate passages of cells. All wells, in all plates, were seeded at the same density and at the same time.
Due to the inherent variations in the levels of both intracellular and extracellular HBV DNA, only depressions greater than 3.5-fold (for HBV virion DNA) or 3.0-fold (for HBV DNA replication intermediates) from the average levels for these HBV DNA forms in untreated cells are considered to be statistically significant [P<0.05]. The levels of integrated HBV DNA in each cellular DNA preparation (which remain constant on a per cell basis in these experiments) were used to calculate the levels of intracellular HBV DNA forms, thereby ensuring that equal amounts of cellular DNA were compared between separate samples.
Typical values for extracellular HBV virion DNA in untreated cells ranged from 50 to 150 pg/ml culture medium (average of approximately 76 pg/ml). Intracellular HBV DNA replication intermediates in untreated cells ranged from 50 to 100 pg/μg cell DNA (average approximately 74 pg/μg cell DNA). In general, depressions in the levels of intracellular HBV DNA due to treatment with antiviral compounds are less pronounced, and occur more slowly, than depressions in the levels of HBV virion DNA (Korba and Milman, 1991, Antiviral Res., 15:217).

[3] = test system: 2.2.15 cells (HepG2 cells transformed with hepatitis virion); assay: Toxicity in 2.2.15 cells by neutral red dye uptake; conditions: Table 4; 2.2.15 cells; read-out: Cytotoxicity IC50 ± SD
Method: (§1) Toxicity analyses were performed to assess whether any observed antiviral effects were due to a general effect on cell viability. The method used herein was the measurement of the uptake of neutral red dye, a standard and widely used assay for cell viability in a variety of virus-host systems, including HSV and HIV. Toxicity analyses were performed in 96-well flat bottomed tissue culture plates. Cells for the toxicity analyses were cultured and treated with test compounds with the same schedule as described for the antiviral evaluations below. Each compound was tested at 4 concentrations, each in triplicate cultures (wells “A”, “B”, and “C”). Uptake of neutral red dye was used to determine the relative level of toxicity. The absorbance of internalized dye at 510 nm (Asin) was used for the quantitative analysis. Values are presented as a percentage of the average Asin values in 9 separate cultures of untreated cells maintained on the same 96-well plate as the test compounds. Dye uptake in the 9 control cultures on plate 5 ranged from 91.6% to 110.4%, and on plate 6 from 96.6% to 109%.

[4] = Toxicity in 2.2.15 cells by neutral red dye uptake; conditions: human, 2.2.15 cells (HepG2 cells transformed with hepatitis virion), 2.2.15 cells, read-out: Cytotoxicity IC50 ± SD
Method: as §1

[5] = Table 1, uninfected human PBM cells, 6 days
[6] = Table 3, HIV-1LAI, estimated 10% error factor, read-out: Anti-HIV-1 in PBMC EC50
[7] = Table 4, extracellular DNA, untreated control 88 pg/ml, read-out: HBV virion EC50 ± SD
[8] = Table 4, extracellular DNA, untreated control 88 pg/ml, read-out: HBV virion EC90 ± SD
[9] = Table 4, replicative intermediates (intracellular DNA), untreated control 79 pg/μg cell DNA, read-out: HBV RI EC50 ± SD
[10] = Table 4, replicative intermediates (intracellular DNA), untreated control 79 pg/μg cell DNA, read-out: HBV RI EC90 ± SD

Compound | EC50 (HSV-1F) | IC50 (Vero cells; Table 1) | IC50 (CEM cells; Table 1) | IC50 [1, 5] | IC50 (Vero cells; Table 3) | EC50 (HIV-2ROD2) | IC50 (CEM cells; Table 3) | EC50 (HIV-1 (strain LAV); [6]) | IC50 ([1]; Table 3) | EC50 (SIVSMM) | EC50 [2, 7] | EC90 [2, 8] | EC50 [2, 9] | EC90 [2, 10] | IC50 [3] | toxicity, in words (various cell lines) | antiviral activity against HIV, in words (HIV-1 (strain LAV)) | Selectivity Index IC50/EC90 RI ([2]; Table 2) | Selectivity Index IC50/EC90 Virion ([2]; Table 2) | IC50 ([4]; Table 2) | other results
5-carboxylic acid amide-2′,3′-dideoxy-3′-thiacytidine [C Carboxamide (±)-β-DL] | > 100 µM | > 100 µM | > 100 µM | > 100 µM |  |  |  |  |  |  |  |  |  |  |  |  |  |  |  |  | toxicity (no toxicity up to) (various cell lines; various cell lines): > 100 µM; EC50 (HIV-1 (strain LAV); HIV-1 in PBM cells, read-out: median effective concentration (antiviral activity)): 0.77 µM
Nc1ccn([C@@H]2CS[C@H](CO)O2)c(=O)n1 (single isomer, unassigned) [3TC, (−)-enantiomer of 2-hydroxymethyl-5-(cytosin-1-yl)-1,3-oxathiolane, reference compound] | > 100 µM | > 100 µM | > 100 µM | > 100 µM | > 100 µM | 0.02 µM | > 100 µM | 0.002 µM | > 100 µM | 0.02 µM |  |  |  |  |  |  |  |  |  |  | EC50 (HIV-1 (strain LAV); Table 1, HIV-1LAI, human PBM cells, estimated 10% error factor, read-out: Anti-HIV-1 in PBMC EC50): 0.002 µM
Nc1ccn([C@@H]2C=C[C@H](CO)O2)c(=O)n1 [L-D4C, β-L-2′,3′-didehydro-2′,3′-dideoxy-cytidine] |  |  |  |  | 10.8 µM | 0.033 µM | 0.73 µM | 0.0058 µM | > 100 µM | 0.048 µM | 0.15 ± 0.02 µM | 0.33 ± 0.04 µM | 0.91 ± 0.09 µM | 2.3 ± 0.3 µM | 1040 ± 92 µM | relatively nontoxic | significant activity against HIV |  |  |  | 
Nc1nc(=O)n([C@@H]2C=C[C@H](CO)O2)cc1F [L-F-D4C, β-L-2′,3′-didehydro-2′,3′-dideoxy-5-fluoro-cytidine] |  |  |  |  | 40.3 µM | 0.0006 µM | 7.3 µM | 0.0015 µM | > 100 µM | 0.00015 µM | 0.28 ± 0.03 µM | 0.41 ± 0.04 µM | 0.33 ± 0.04 µM | 0.75 ± 0.07 µM | > 3 µM | relatively nontoxic | significant activity against HIV |  |  |  | 
Nc1ccn([C@H]2CC[C@@H](CO)O2)c(=O)n1 [β-D-DDC, 2′,3′-dideoxycytidine, reference compound] |  |  |  |  |  |  |  |  |  |  |  |  |  |  |  |  |  | 18 | 26 | 236 ± 21 µM | EC50 ([2]; Hepatitis B virus, HepG2 2.2.15, 216 h, read-out: HBV RI EC50 ± SD, Table 2, replicative intermediates (intracellular DNA), untreated control 87 pg/μg cell DNA): 3.4 ± 0.4 µM; EC50 ([2]; Hepatitis B virus, HepG2 2.2.15, 216 h, read-out: HBV RI EC50 ± SD, Table 4, replicative intermediates (intracellular DNA), untreated control 79 pg/μg cell DNA): 2.4 ± 0.3 µM; EC90 ([2]; Hepatitis B virus, HepG2 2.2.15, 216 h, read-out: HBV RI EC90 ± SD, Table 2, replicative intermediates (intracellular DNA), untreated control 87 pg/μg cell DNA): 13 ± 1.4 µM; EC90 ([2]; Hepatitis B virus, HepG2 2.2.15, 216 h, read-out: HBV RI EC90 ± SD, Table 4, replicative intermediates (intracellular DNA), untreated control 79 pg/μg cell DNA): 12 ± 1.1 µM; EC50 ([2]; Hepatitis B virus, HepG2 2.2.15, 216 h, read-out: HBV virion EC50 ± SD, Table 2, extracellular DNA, untreated control 102 pg/ml): 1.4 ± 0.2 µM; EC50 ([2]; Hepatitis B virus, HepG2 2.2.15, 216 h, read-out: HBV virion EC50 ± SD, Table 4, extracellular DNA, untreated control 88 pg/ml): 1.5 ± 0.2 µM; EC90 ([2]; Hepatitis B virus, HepG2 2.2.15, 216 h, read-out: HBV virion EC90 ± SD, Table 2, extracellular DNA, untreated control 102 pg/ml): 9.6 ± 1.1 µM; EC90 ([2]; Hepatitis B virus, HepG2 2.2.15, 216 h, read-out: HBV virion EC90 ± SD, Table 4, extracellular DNA, untreated control 88 pg/ml): 8.2 ± 0.8 µM; Selectivity Index IC50/EC90 RI ([2]; Table 4): 22; Selectivity Index IC50/EC90 Virion ([2]; Table 4): 37; IC50 ([4]; Table 4): 259 ± 18 µM
Nc1nc(=O)n([C@@H]2CS[C@H](CO)O2)cc1F [β-L-FTC, (−)-cis-2-hydroxymethyl-5-(5-fluorocytosin-1-yl)-1,3-oxathiolane, reference compound] |  |  |  |  |  |  |  |  |  |  |  |  |  |  |  |  |  | 1,913 | 678 | 746 ± 33 µM | EC50 ([2]; Hepatitis B virus, HepG2 2.2.15, 216 h, Table 2, extracellular DNA, untreated control 102 pg/ml, read-out: HBV virion EC50 ± SD): 0.04 ± 0.006 µM; EC90 ([2]; Hepatitis B virus, HepG2 2.2.15, 216 h, Table 2, extracellular DNA, untreated control 102 pg/ml, read-out: HBV virion EC90 ± SD): 1.1 ± 0.1 µM; EC50 ([2]; Hepatitis B virus, HepG2 2.2.15, 216 h, Table 2, replicative intermediates (intracellular DNA), untreated control 87 pg/μg cell DNA, read-out: HBV RI EC50 ± SD): 0.16 ± 0.01 µM; EC90 ([2]; Hepatitis B virus, HepG2 2.2.15, 216 h, Table 2, replicative intermediates (intracellular DNA), untreated control 87 pg/μg cell DNA, read-out: HBV RI EC90 ± SD): 0.39 ± 0.22 µM
